# Source: the supplement of paper PMC10307832
# Key:
# Experiment in all cases: relative viability (nuclei count vs DMSO), 5 days (fraction); higher = more cells survive
# Masitinib + Olaparib = compound: Cc1ccc(NC(=O)c2ccc(CN3CCN(C)CC3)cc2)cc1Nc1nc(-c2cccnc2)cs1 [Masitinib] + O=C(c1cc(Cc2n[nH]c(=O)c3ccccc23)ccc1F)N1CCN(C(=O)C2CC2)CC1 [Olaparib] (partner 8 µM)
# Outline: (§1)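 Lung cancer cell lines in 1536-well plates were dosed by pin tool the day after seeding, either with one drug alone or with a fixed anchor-drug dose plus five library-drug doses (not always all listed) in √10 steps. After 5 days, cells were fixed and their nuclei stained in one step (final 0.05% Triton X-100, 1% formaldehyde, 1 ug/ml Hoechst), then counted on 4× images. Relative viability is the nuclei count in treated wells divided by that in vehicle wells. Values are medians of duplicate plates.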
# Masitinib + Alpelisib = compound: Cc1ccc(NC(=O)c2ccc(CN3CCN(C)CC3)cc2)cc1Nc1nc(-c2cccnc2)cs1 [Masitinib] + Cc1nc(NC(=O)N2CCC[C@H]2C(N)=O)sc1-c1ccnc(C(C)(C)C(F)(F)F)c1 [Alpelisib] (partner 2 µM)
# Outline: as §1
# Masitinib + Tozasertib = compound: Cc1ccc(NC(=O)c2ccc(CN3CCN(C)CC3)cc2)cc1Nc1nc(-c2cccnc2)cs1 [Masitinib] + Cc1cc(Nc2cc(N3CCN(C)CC3)nc(Sc3ccc(NC(=O)C4CC4)cc3)n2)n[nH]1 [Tozasertib] (partner 0.1 µM)
# Outline: as §1
# [1] = compound: CC1=CC(=CC=C1)NC2=NC(=CS2)C3=CC=NC=C3 + CS(=O)(=O)CCNCc1ccc(-c2ccc3ncnc(Nc4ccc(OCc5cccc(F)c5)c(Cl)c4)c3c2)o1 [Lapatinib] (partner 2 µM)
# Outline: as §1
Cell Line,relative viability (Masitinib + Olaparib; first compound 0.01 µM),relative viability (Masitinib + Olaparib; first compound 0.03162 µM),relative viability (Masitinib + Olaparib; first compound 0.1 µM),relative viability (Masitinib + Olaparib; first compound 0.3162 µM),relative viability (Masitinib + Olaparib; first compound 1 µM),relative viability (Masitinib + Alpelisib; first compound 0.01 µM),relative viability (Masitinib + Alpelisib; first compound 0.03162 µM),relative viability (Masitinib + Alpelisib; first compound 0.1 µM),relative viability (Masitinib + Alpelisib; first compound 0.3162 µM),relative viability (Masitinib + Alpelisib; first compound 1 µM),relative viability (Masitinib + Tozasertib; first compound 0.01 µM),relative viability (Masitinib + Tozasertib; first compound 0.03162 µM),relative viability (Masitinib + Tozasertib; first compound 0.1 µM),relative viability (Masitinib + Tozasertib; first compound 0.3162 µM),relative viability (Masitinib + Tozasertib; first compound 1 µM),relative viability ([1]; first compound 0.08 µM),relative viability ([1]; first compound 0.253 µM),relative viability ([1]; first compound 0.8 µM),relative viability ([1]; first compound 2.53 µM),relative viability ([1]; first compound 8 µM)
201T,0.702,0.901,0.765,0.721,0.806,0.866,1.01,0.978,0.877,0.989,0.711,1.01,0.85,0.789,0.926,0.982,0.956,0.97,0.767,0.752
A549,0.363,0.184,0.338,0.301,0.325,0.773,0.712,1.01,0.938,0.683,–,–,–,–,–,0.863,0.893,0.898,0.891,0.809
A-427,0.621,0.711,0.654,0.489,0.663,–,1.09,–,1.05,1.08,–,0.214,–,0.171,0.227,0.972,1.09,1.03,–,0.892
ABC-1,0.727,1.39,0.844,0.67,0.78,1.26,1.04,1.01,0.813,1.01,0.223,0.163,0.168,0.226,0.18,1.24,1.14,1.03,1.02,1.01
BEN,1.21,1.1,1.4,1.23,1.08,1.21,0.901,1.3,1.34,0.945,0.481,0.506,0.561,0.483,0.481,0.733,0.62,0.498,0.669,0.741
CAL-12T,0.716,0.696,0.688,0.712,0.708,1.21,1.2,1.18,1.36,1.18,0.303,0.282,0.307,0.192,0.234,0.534,–,0.649,0.608,0.678
COR-L23,0.35,0.329,0.361,0.309,0.27,0.862,0.81,0.861,0.848,0.852,0.207,0.164,0.168,0.124,0.15,0.709,0.878,0.651,1.07,0.881
COR-L 105,0.655,0.532,0.689,0.494,0.498,1,1.02,1.05,0.879,1.15,0.377,0.353,0.361,0.333,0.317,0.289,0.41,0.382,0.408,0.389
Calu-6,0.53,0.656,0.63,0.563,0.547,1.02,1.01,1.02,0.872,0.923,–,–,–,–,–,0.945,0.969,0.86,0.873,0.823
ChaGo-K-1,0.39,0.435,0.405,0.35,0.392,–,–,–,–,–,0.205,0.202,0.21,0.192,0.21,–,–,–,–,–
EBC-1,0.679,0.673,0.814,0.713,0.615,0.835,0.713,1.01,0.715,0.822,–,–,–,–,–,0.202,0.238,0.204,0.206,0.167
EKVX,0.653,0.704,0.766,–,0.744,–,0.779,0.786,0.706,0.944,–,0.409,0.405,0.443,0.333,0.182,0.189,0.206,0.163,0.171
EMC-BAC-2,0.457,0.484,0.481,0.416,0.456,0.701,0.714,0.841,0.767,0.783,0.273,0.271,0.287,0.264,0.261,0.78,0.85,0.839,0.829,0.848
EPLC-272H,0.927,–,0.866,0.655,0.768,0.999,0.902,1.12,1.07,0.898,0.342,0.352,0.361,0.357,0.244,0.831,–,0.867,–,0.908
H3255,0.474,0.566,0.513,0.545,0.555,–,0.84,0.766,0.49,0.675,0.437,0.712,0.502,0.687,0.608,0.225,0.325,0.203,0.195,0.211
HARA,0.749,0.507,1.15,–,1.13,0.798,0.621,0.809,0.727,0.822,–,0.352,0.126,0.0979,0.104,0.483,0.641,0.509,0.474,0.527
HCC-15,0.628,0.669,0.753,0.735,0.82,0.8,0.873,0.976,0.85,0.916,0.491,0.426,0.433,0.387,0.243,0.809,0.841,0.848,0.845,0.739

Cell Line,relative viability (Masitinib + Olaparib; first compound 0.01 µM),relative viability (Masitinib + Olaparib; first compound 0.03162 µM),relative viability (Masitinib + Olaparib; first compound 0.1 µM),relative viability (Masitinib + Olaparib; first compound 0.3162 µM),relative viability (Masitinib + Olaparib; first compound 1 µM),relative viability (Masitinib + Alpelisib; first compound 0.01 µM),relative viability (Masitinib + Alpelisib; first compound 0.03162 µM),relative viability (Masitinib + Alpelisib; first compound 0.1 µM),relative viability (Masitinib + Alpelisib; first compound 0.3162 µM),relative viability (Masitinib + Alpelisib; first compound 1 µM),relative viability (Masitinib + Tozasertib; first compound 0.01 µM),relative viability (Masitinib + Tozasertib; first compound 0.03162 µM),relative viability (Masitinib + Tozasertib; first compound 0.1 µM),relative viability (Masitinib + Tozasertib; first compound 0.3162 µM),relative viability (Masitinib + Tozasertib; first compound 1 µM),relative viability ([1]; first compound 0.08 µM),relative viability ([1]; first compound 0.253 µM),relative viability ([1]; first compound 0.8 µM),relative viability ([1]; first compound 2.53 µM),relative viability ([1]; first compound 8 µM)
HCC-44,0.939,0.968,0.979,0.916,0.963,0.748,0.752,0.88,0.69,0.834,0.865,1.13,0.876,0.799,0.599,0.757,0.755,0.831,0.777,0.812
HCC-78,0.798,0.855,0.871,0.712,0.824,0.342,0.188,0.438,0.306,0.332,0.338,0.446,0.423,0.447,0.454,0.708,0.528,0.862,0.623,0.673
HCC-366,–,0.384,0.357,0.343,0.396,0.33,0.294,0.376,0.315,0.382,–,0.0721,–,0.0725,0.0736,0.848,1.07,1.01,1.05,0.951
HCC-827,0.564,0.642,0.655,0.624,0.695,0.91,0.994,1.1,0.928,0.997,0.378,0.444,0.444,0.457,0.514,0.204,0.187,0.191,0.187,0.179
IA-LM,0.896,0.875,0.929,0.796,0.836,0.823,0.758,1.07,0.762,0.787,–,–,–,–,–,0.65,0.503,0.561,0.508,0.572
LCLC-103H,–,0.747,0.75,0.758,0.781,0.711,0.913,0.917,0.992,0.971,0.43,0.497,0.506,0.443,0.434,–,–,–,–,–
NCI-H441,0.53,0.403,0.602,0.586,0.553,0.675,0.822,0.873,0.703,0.653,0.67,0.571,0.637,0.7,0.473,–,–,–,–,–
NCI-H522,0.609,0.766,0.66,0.534,0.619,–,–,–,–,–,0.589,–,0.631,0.615,0.582,–,–,–,–,–
NCI-H1299,0.936,0.988,0.993,1.06,0.846,1.1,1.1,1.27,1.11,1.05,–,–,–,–,–,0.969,0.938,0.933,0.946,0.84
NCI-H1563,–,–,–,–,–,1.02,0.964,0.839,1.13,0.931,–,–,–,–,–,0.912,0.64,0.912,0.761,0.634
NCI-H1623,–,–,–,–,–,–,–,–,–,–,0.447,0.548,0.477,0.398,0.35,–,–,–,–,–
NCI-H1648,1.04,0.78,1.08,–,0.96,–,–,–,–,–,0.477,–,0.452,0.397,0.431,–,–,–,–,–
NCI-H1650,0.675,0.711,0.751,0.614,0.884,–,–,–,–,–,0.346,0.329,0.297,0.326,0.23,0.801,0.735,0.753,0.445,0.176
NCI-H1703,0.308,0.267,0.231,0.174,0.277,0.226,0.255,0.228,0.171,0.197,–,–,–,–,–,0.894,1.21,1.19,1.36,1.07
NCI-H1792,0.528,0.257,0.303,0.377,0.396,0.69,0.203,0.61,0.65,0.698,–,–,–,–,–,0.885,0.659,0.772,0.722,0.866
NCI-H2342,0.447,0.485,0.425,0.44,0.36,–,–,–,–,–,0.464,0.51,0.523,0.514,0.469,–,–,–,–,–
SW 900,0.809,0.878,0.918,0.684,0.966,–,–,–,–,–,0.58,0.608,0.542,0.442,0.455,–,–,–,–,–
